Data on one compound can be found in patent US20040191842A1, “Chemopreventive and therapeutic aspects of polyphenolic compositions and assays” (Medical College of Georgia Research Institute, Inc., priority 2002, published 2004).

Series [1] relates to normal human primary epidermal keratinocytes. Kind of series: Immunocytochemistry of differentiation markers in keratinocytes. Format: cell-based. The following applies: 50-100 μM EGCG, 24 hours. On the procedure: Immunocytochemistry. Normal human keratinocytes were seeded in 8-well chamber slides (Nagle Nunc International, Naperville, Ill.) 12 hours prior to EGCG treatment. At the end of a 24-hour treatment, the slides were washed with PBS and fixed in a cold 4% paraformaldehyde solution for 10 minutes. […] The primary antibodies, rabbit-anti-human p57 polyclonal antibody C-19, rabbit anti-human keratin 1, and filaggrin antibodies were applied for 1 hour at 37° C. at the dilutions recommended by the manufacturers. The streptavidin detection technique (Biogenex, USA) was used with 3-amino-9-ethylcarbazole as chromogen. Negative control sections consisted of tissues treated with 1% diluted normal goat serum instead of primary antibody. Mayer's hematoxylin was used as a counter-stain.

Series [2] deals with p57 (KIP2). As to the kind of experiment: Western blot of p57 in OSC2 oral carcinoma cells. Format: cell-based, human. On the procedure:
(§1) Cell treatments. For 24 hours treatments, exponentially growing cells with 40% confluency (to minimize differentiation and spontaneous apoptosis) were either maintained in 50 μM EGCG (2.29 mg/100 ml) or 0.2 mg/ml of GTPPs in tissue culture flasks (25 cm^2). Control flasks contained cells without any treatment. To test whether BaP or NNK interfere with the induction of p57, the human keratinocytes were treated with 0.12 μM BaP, or 10 μM NNK, either alone or in combination with 50 μM EGCG. To examine the time course of p57 induction, cells were treated with 50 μM EGCG and harvested for Western analysis at 30 minutes, 2 hours, 6 hours, and 24 hours. The human keratinocytes were treated when the cell density reached 85-90% confluency (to mimic the epithelium).
(§2) In a parallel series of experiments, treatment with EGCG was performed with 30 micrograms per milliliter (μg/ml) cycloheximide added to the keratinocyte media 30 minutes prior to the addition of EGCG. The dose-response experiments were performed using EGCG concentrations at 30, 50 100, and 200 μM in the culture media for 24 hours.
Western blot analysis. […] The concentration of protein in each sample was determined using the BioRad DC Protein Assay and spectrophotometry. […]
In general terms: Immunoblotting shows a protein as a band on a membrane.

The subject of series [3] is p57 (KIP2). Format: cell-based, human. The procedure:
as §1, §2
Western blot analysis. Cells from different treatment groups were lysed in RIPA buffer (1% NP-40, 1% sodium deoxycholate, 0.1% SDS, 0.15 M NaCl, 0.01 M sodium phosphate, pH 7.2, and 1% Trasylol) containing proteinase inhibitors (1 mM PMSF, 1 μg/ml each of aprotinin, leupeptin, and pepstatin). The concentration of protein in each sample was determined using the BioRad DC Protein Assay and spectrophotometry. Fifty micrograms (μg) of protein from each sample and a BioRad molecular weight standard marker were run on a 10% SDS-PAGE, followed by transfer to nitrocellulose membranes. Nonspecific binding to membranes was blocked with 10% nonfat milk. Specific primary polyclonal (rabbit) antibody against p57 and a horse radish peroxidase-conjugated goat anti-rabbit secondary antibody were used in conjunction with the ECL Chemiluminescence Kit and membranes were exposed to radiographic films for detection.

Another series concerns OSC2 cells. As to the kind of experiment: BrdU incorporation assay, OSC2 (OSC-2) cells. Format: cell-based, human. The procedure:
DNA synthesis analysis using BrdU incorporation method. The BrdU cell proliferation kit was purchased from Oncogene Research Products, Boston, Mass. Cells were culture in 96 well plates with 10^4 cells/well. After EGCG and GTPPs treatments, cells were labeled by BrdU, reacted with BrdU antibody and the color reaction was carried out according to the protocol provided by the manufacturer. The coloration was measure by a Thermo MAX microplate reader using wavelengths 450 nm-562 nm.
DNA synthesis assay. DNA synthesis was analyzed by a BrdU Cell Proliferation Assay Kit (Oncogene Research Products, Boston, Mass.). […] After the treatment, cells were labeled with BrdU for 2 hours at 37° C. and reacted with anti-BrdU antibody. Unbound antibody in each well was removed by rinsing, and horseradish peroxidase-conjugated goat anti-mouse antibody was added to each well. The color reaction was visualized according to the protocol provided by the manufacturer.
DNA synthesis assay. DNA synthesis was analyzed by a BrdU cell proliferation assay kit (Oncogene Research Products, Boston, Mass.). […] After the treatment, cells were labeled with BrdU for 2 hours at 37° C. and reacted with anti-BrdU antibody. Unbound antibody in each well was removed by rinsing, and horseradish peroxidase-conjugated goat anti-mouse IgG antibody was added to each well. The color reaction to visualize the secondary antibody was carried out according to the protocol provided by the manufacturer.
(Incorporation of labelled thymidine or its analogues reports DNA synthesis.)

The conditions of series [4]: as stated in Example 9; read-out: Cmax in the plasma; cited from earlier work.
Another series concerns OSC-4 cells. Kind of series: Intracellular ROS levels (DFDA assay), OSC-4 cells. Format: cell-based, human. The following applies: for intracellular ROS levels vs control: 120 minute time point. The procedure: (§3) Measurement of intracellular ROS levels. The ROS assay measures the accumulation of intracellular ROS levels. The non-fluorescent dye DFDA passively diffuses into cells, where the acetates are cleaved by intracellular esterases. […] Thus, values of the fluorescence in the cell cultures are constantly rising in this assay. Cells (1.5×10^4 cells/well) were incubated with Hallam's physiological saline (HPS) containing DFDA (10 μM) in a 96-well microplate for 30 minutes at 37° C. After the incubation, cells were washed three times with HPS and then incubated with HPS containing EGCG (15-200 μM) or diamide (5 mM) for the indicated time periods. The intracellular ROS levels were measured by using a fluorescence plate reader (BIO-TEK FL600, Bio-Tek Instruments, Inc., Winooski, Vt.), at an excitation wavelength of 485 nm and an emission wavelength of 530 nm.
as §3, with “assay (DFDA assay)” for “assay”, “dye dichlorofluorescein diacetate (DFDA)” for “dye DFDA”, “this assay due to the accumulation of ROS.” for “this assay.”, “EGCG (50-200” for “EGCG (15-200”, “indicated times.” for “indicated time periods.”

Usually Cmax stands for the highest concentration seen after dosing. Turning to `O=C(O[C@@H]1Cc2c(O)cc(O)cc2O[C@@H]1c1cc(O)c(O)c(O)c1)c1cc(O)c(O)c(O)c1` [EGCG, (−)-epigallocatechin-3-gallate], in series [1], the “differentiation (p57/KIP2, keratin 1, filaggrin)” value is reported as “underwent differentiation in 24 hours”. Also, in the series on p57 (KIP2) [2] (50 μM EGCG or 0.2 mg/ml GTPPs, 24 h), the p57 levels result is listed as “remained unchanged”. Moreover, the “p57 expression, time course and dose response” value with p57 (KIP2) [2] (EGCG at any time point or concentration) is on record as “failed to elevate p57 expression”. In addition, the p57 protein accumulation result with p57 (KIP2) [3] (50 μM EGCG or 0.2 mg/ml GTPPs, 24 h, 40% confluency) is reported as “accumulated in normal human epithelial cells”. The “EGCG-stimulated p57 protein accumulation when BaP and NNK were present” value in the series on p57 (KIP2) [3] (50 μM EGCG with 0.12 μM BaP or 10 μM NNK) is given as “still occurred”. In addition, the “time of peak p57 expression” value with p57 (KIP2) [3] (50 μM EGCG, cell density 90%) came out at 6 h. The “p57 levels over 24 hours” value in the series on p57 (KIP2) [3] (100 μM or 200 μM EGCG, 90% confluency) is recorded as “remained high throughout the 24 hours period”. The “BrdU incorporation, of control levels” value in the series with OSC2 cells (200 μM EGCG) was “approximately 75%”. Moreover, the “reduction of BrdU incorporation” value with OSC2 cells (200 μM EGCG, 24-hour period) is on record as “approximately 25%”. Also, the BrdU incorporation entry in the series on OSC2 cells (EGCG concentrations reached 50 μM, or GTPPs) is listed as “ceased BrdU incorporation”. Moreover, in series [4], the peak concentration (Cmax) is 10 µM. In the series with OSC-4 cells (50 μM EGCG, 60 minute exposure), the “intracellular ROS levels vs controls” value was “remained comparable to the controls”. In addition, the results for the “intracellular ROS levels vs control” value in the series on OSC-4 cells (50 μM EGCG) and in the series with OSC-4 cells (200 μM EGCG) were “ROS levels identical to the control cells” and “remained higher than the control cells”, respectively. The “time at which rate of ROS production peaked” value in the series on OSC-4 cells (EGCG) is 60 min. In the series with OSC-4 cells (first hour), the “H2O2 concentration producing ROS equivalent to 200 μM EGCG” value came to 100 µM.
